Measured values taken from patent US6358885B1, “Substituted phenylheterocyclic herbicides” (Mississippi State University, priority 1992, dated 2002).

Tests used:
Assay in all cases: Test B preemergence/postemergence greenhouse plant response rating 0 to 10
bedstraw = format: in vivo, Galium aparine; details: for Plant response rating, Bedstraw: 0 to 10 scale
Method in brief: (§1)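 Both application timings were run together: seeds got compound preemergence, and established seedlings (two to eighteen cm) got it postemergence. Non-phytotoxic solvent carried the chemical. Ratings are visual, versus controls, at twelve to sixteen days.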

chickweed = format: in vivo, Stellaria media; details: for Plant response rating, Chickweed: 0 to 10 scale
Method in brief: as §1

corn = format: in vivo, Zea mays; details: for Plant response rating, Corn: 0 to 10 scale
Method in brief: as §1

sugar beet = format: in vivo, Beta vulgaris; details: for Plant response rating, Sugar beet: 0 to 10 scale; for Plant response rating (0 to 10 scale), Sugar beet: Rate 100 g/ha
Method in brief: as §1

wild buckwheat = format: in vivo, Polygonum convolvulus; details: for Plant response rating, Wild buckwheat: 0 to 10 scale; for Plant response rating (0 to 10 scale), Wild buckwheat: Rate 100 g/ha
Method in brief: as §1

Row | SMILES | Plant response rating (0 to 10 scale), Bedstraw (bedstraw; POSTEMERGENCE, Rate 50 g/ha) | Plant response rating, Bedstraw (bedstraw; POSTEMERGENCE, Rate 200 g/ha) | Plant response rating, Bedstraw (bedstraw; PREEMERGENCE, Rate 50 g/ha) | Plant response rating, Bedstraw (bedstraw; Rate 200 g/ha, PREEMERGENCE) | Plant response rating (0 to 10 scale), Chickweed (chickweed; POSTEMERGENCE, Rate 50 g/ha) | Plant response rating, Chickweed (chickweed; POSTEMERGENCE, Rate 200 g/ha) | Plant response rating, Chickweed (chickweed; PREEMERGENCE, Rate 50 g/ha) | Plant response rating, Chickweed (chickweed; Rate 200 g/ha, PREEMERGENCE) | Plant response rating (0 to 10 scale), Corn (corn; POSTEMERGENCE, Rate 50 g/ha) | Plant response rating, Corn (corn; POSTEMERGENCE, Rate 200 g/ha) | Plant response rating, Corn (corn; PREEMERGENCE, Rate 50 g/ha) | Plant response rating, Corn (corn; Rate 200 g/ha, PREEMERGENCE) | Plant response rating, Sugar beet (sugar beet; POSTEMERGENCE, Rate 50 g/ha) | Plant response rating, Sugar beet (sugar beet; POSTEMERGENCE, Rate 200 g/ha) | Plant response rating, Sugar beet (sugar beet; PREEMERGENCE, Rate 50 g/ha) | Plant response rating, Sugar beet (sugar beet; Rate 200 g/ha, PREEMERGENCE) | Plant response rating, Wild buckwheat (wild buckwheat; POSTEMERGENCE, Rate 50 g/ha) | Plant response rating, Wild buckwheat (wild buckwheat; POSTEMERGENCE, Rate 200 g/ha) | Plant response rating, Wild buckwheat (wild buckwheat; Rate 200 g/ha, PREEMERGENCE) | Plant response rating, Wild buckwheat (wild buckwheat; PREEMERGENCE, Rate 50 g/ha) | further results
1 | Clc1ccc(-c2nc3n(c2Cl)CCC=C3)c(Cl)c1 [Compound 1] | 3 | 3 | 0 | 0 | 0 | 2 | 0 | 0 | 2 | 2 | 0 | 0 | 8 | 10 | 0 | 0 | 5 | 9 | 0 | – | –
2 | Clc1ccc(-c2nc3n(c2Br)CCCC3)c(Cl)c1 [Compound 2] | 3 | 4 | 0 | 3 | 1 | 2 | 0 | 0 | 3 | 4 | 0 | 0 | 9 | 10 | 0 | 0 | 10 | 10 | 0 | 0 | Plant response rating (0 to 10 scale), Bedstraw (bedstraw; POSTEMERGENCE, Rate 100 g/ha): 3; Plant response rating, Bedstraw (bedstraw; POSTEMERGENCE, Rate 400 g/ha): 3; Plant response rating (0 to 10 scale), Bedstraw (bedstraw; PREEMERGENCE, Rate 100 g/ha): 0; Plant response rating, Bedstraw (bedstraw; PREEMERGENCE, Rate 400 g/ha): 0; Plant response rating (0 to 10 scale), Chickweed (chickweed; POSTEMERGENCE, Rate 100 g/ha): 2; Plant response rating, Chickweed (chickweed; POSTEMERGENCE, Rate 400 g/ha): 2; Plant response rating (0 to 10 scale), Chickweed (chickweed; PREEMERGENCE, Rate 100 g/ha): 0; Plant response rating, Chickweed (chickweed; PREEMERGENCE, Rate 400 g/ha): 0; Plant response rating (0 to 10 scale), Corn (corn; POSTEMERGENCE, Rate 100 g/ha): 3; Plant response rating, Corn (corn; POSTEMERGENCE, Rate 400 g/ha): 4; Plant response rating (0 to 10 scale), Corn (corn; PREEMERGENCE, Rate 100 g/ha): 0; Plant response rating, Corn (corn; PREEMERGENCE, Rate 400 g/ha): 0; Plant response rating (0 to 10 scale), Sugar beet (sugar beet; POSTEMERGENCE): 9; Plant response rating, Sugar beet (sugar beet; POSTEMERGENCE, Rate 400 g/ha): 10; Plant response rating (0 to 10 scale), Sugar beet (sugar beet; PREEMERGENCE): 0; Plant response rating (0 to 10 scale), Wild buckwheat (wild buckwheat; POSTEMERGENCE): 10; Plant response rating, Wild buckwheat (wild buckwheat; POSTEMERGENCE, Rate 400 g/ha): 10; Plant response rating (0 to 10 scale), Wild buckwheat (wild buckwheat; PREEMERGENCE): 0; Plant response rating, Wild buckwheat (wild buckwheat; PREEMERGENCE, Rate 400 g/ha): 0
3 | CC(C)Oc1cc(-c2nn3c(c2Cl)CCCC3)c(F)cc1Cl [Compound 21] | 6 | 9 | 2 | 9 | 8 | 7 | 2 | 7 | 5 | 6 | 0 | 1 | 10 | 10 | 10 | 9 | 10 | 10 | 9 | 7 | –
4 | Fc1cc(Cl)c(OCc2ccccc2)cc1-c1nn2c(c1Cl)CCCC2 [Compound 22] | 8 | 8 | – | 10 | – | 7 | 0 | 2 | 3 | 4 | 2 | 4 | 9 | 6 | 1 | 9 | 10 | 10 | 5 | 2 | –
5 | CCCOc1cc(-c2nn3c(c2Cl)CCCC3)c(F)cc1Cl [Compound 23] | 7 | 9 | 5 | 5 | – | 9 | 0 | 6 | 4 | 6 | 0 | 6 | 10 | 10 | 9 | 10 | 10 | 10 | 10 | 0 | –
6 | Fc1cc(Cl)c(OC2CCCC2)cc1-c1nn2c(c1Cl)CCCC2 [Compound 24] | 6 | 7 | 3 | 5 | 8 | 9 | 0 | 3 | 5 | 5 | 0 | 1 | 10 | 10 | 9 | 9 | 10 | 10 | 5 | 3 | –
7 | CCS(=O)(=O)Oc1cc(-c2nn3c(c2Cl)CCCC3)c(F)cc1Cl [Compound 25] | 9 | 9 | 5 | 10 | – | – | 0 | 9 | 3 | 6 | 0 | 0 | 10 | 10 | 7 | 10 | 10 | 10 | 10 | 8 | –
